The values below come from US20250295619A1, “Use of Salvianolic Acid E in the Preparation of Drugs Targeting Senescent Cells, Inhibiting Tumors or Extending Lifespan” (Shanghai Institute of Nutrition and Health, Chinese Academy …, priority 2024, published 2025).

The subject of test [1] is PC3/PSC27 transplanted tumors. Put plainly: PC3/PSC27 xenograft tumor volume in NOD/SCID mice. The conditions noted are these: for effect on tumor volume of chemotherapeutic drug combined with SAE: combination with SAE vs chemotherapeutic drug alone; for effect on tumors when combined with MIT: combination with MIT vs MIT alone. It counts as in vivo, mouse. As for the experimental part:
Every two weeks was a dosing cycle, and MIT (mitoxantrone) was intraperitoneally administered to the mice on the first day of the 3rd/5th/7th weeks. From the first day of the 5th week, the mice were intraperitoneally administered with SAE, […]. After the 8-week course of treatment, the mice were dissected for pathological identification and expression analysis.
All experimental mouse experiments were carried out in strict accordance with the relevant regulations of the Institutional Animal Care and Use Committee (IACUC), Shanghai Institutes for Biological Sciences, Chinese Academy of Sciences. Immuno-deficient mice (NOD-SCID mice, ICR) (body weight about 25 g) aged 6-8 weeks were used for animal experiments related to the present patent. Stromal cells PSC27 and epithelial cells PC3 were mixed at a predetermined ratio of 1:4, and each graft contained 1.25×10^6 cells for tissue remodeling. The xenograft tumors were implanted into mice by subcutaneous transplantation, and the animals were euthanized 8 weeks after the end of the transplantation surgery. Tumor volume was calculated according to the following formula: V=(π/6)×((1+w)/2)3 (V, volume; l, length; w, width).
(§1) In a preclinical treatment trial, subcutaneously transplanted mice were fed with a standard experimental diet, after 2 weeks chemotherapy drugs mitoxantrone (MIT, dose: 0.2 mg/kg) and/or SAE (500 μl, dose: 10 mg/kg) via intraperitoneal administration. The time points were: the former was administrated on the first day of the 3rd, 5th and 7th weeks, and the latter was administrated on the first day of the 5th and 7th weeks. A total of 3 cycles of MIT administration were carried out throughout the course of treatment, and each cycle lasted for 2 weeks. After the course of treatment, mouse tumors were harvested for volume measurement and histological analysis. Each mouse cumulatively received 0.6 mg/kg body weight of MIT and 30 mg/kg body weight of SAE. In order to cause systemic expression of SASP factors induced by chemotherapy, MIT was administered to mice through intravenous infusion according to the above steps and sequence, but the dose was reduced to 0.1 mg/kg body weight/each time (the cumulative dose of MIT received in the whole course of treatment was 0.3 mg/kg body weight) to reduce drug-related toxicity. The chemotherapy experiment ended at the end of the 8th week, and the mice were dissected immediately after sacrifice, and the xenograft tumors were collected and used for pathological system analysis.

The subject of test [2] is SASP factors. In words: LCM and qRT-PCR of SASP factors in mouse lesions. The conditions noted are these: after MIT administration. It counts as in vivo. The procedure:
The stromal cells and cancer cells were specifically separated by LCM technology, total RNA was prepared and used for SASP expression detection. ^, P>0.05; *, P<0.05; **, P<0.01.
as §1, with “The chemotherapy experiment ended at the end of the 8th week, and the mice were dissected immediately after sacrifice, and the xenograft tumors were collected and used for pathological system analysis.” left out
In general terms: Real-time PCR tracks product formation cycle by cycle.

The subject of test [3] is senescent cells in tumor tissue. Put plainly: SA-β-Gal staining of tumor tissues of PC3/PSC27 tumor-bearing mice. It counts as in vivo, mouse. The conditions noted are these: MIT alone. As for the experimental part: Representative pictures after SA-β-Gal staining. Scale bar, 100 μm.
as §1

Test [4] deals with PC3/PSC27 tumors. Put plainly: DNA damage and apoptosis in tumors of treated mice. In kind it is in vivo, mouse. The conditions noted are these: single agent compared with placebo, 7 days after first SAE administration. From the text: To investigate mechanisms directly supporting this senescence-associated pattern with expression and reversal of SASP in MIT-administered mice, the inventors dissected tumors in animals treated with both drugs 7 days after the first SAE administration, and the time point of 7 days after administration was selected mainly because drug-resistant clones had not yet formed in cancer cells in the lesion at this time. […] As supporting evidence, when SAE was applied during treatment, caspase 3 cleavage activity was increased, which was a typical hallmark of apoptosis (FIG. 29).

The subject of test [5] is PSC27. In words: Caspase 3/7 apoptosis detection in senescent PSC27 cells (IncuCyte). It counts as cell-based, human. Particulars: 20 μM QVD-OPh, 200 μM SAE. The procedure: PSC27 cells gradually entered the senescent stage after being treated with BLEO for 12 hours under culture conditions. 200 μM SAE was added to the medium of senescent cells starting from day 7, NucLight Rapid Red reagent was used to label the cells and caspase 3/7 reagent (IncuCyte) was used for apoptosis detection. Caspase 3/7 activity was detected every 4 hours (n=3).
Statistical differences are obtained by two-way ANOVA (Turkey'test).
PSC27 cells were plated in a 96-well dish, and the cells were induced to senescence under 50 μg/ml of BLEO treatment. SAE and ABT263 were added at concentrations of 200 μM and 1.25 μM, respectively. Cell culture medium was supplemented with Incucyte Nuclight fast Red Reagent (Essen Bioscience) and Incucyte C-3/7 Apoptosis Reagent (Essen Bioscience). Representative field of view was selected to take pictures.

Test [6] has as its system PSC27. In words: SA-β-Gal staining of PSC27 cells (bleomycin-induced senescence, increasing SAE concentration). In kind it is cell-based, human. The conditions noted are these: PSC27 treated with bleomycin 50 μg/ml, vs control cells. The procedure:
The P value of positive proportion of cells in these experimental groups for SAE at the concentrations of 100 μM, 200 μM, 400 μM, 800 μM, 1600 μM, 2000 μM and 3000 μM are statistically significant compared with the data at 0 μM.
(§2) To cause cell damage, 50 μg/mL bleomycin (bleomycin, BLEO) was added to the culture medium when PSC27 cells grew to 80% (abbreviated as PSC27-CTRL). After 12 hours of drug treatment, the cells were simply washed 3 times with PBS, left in the culture medium for 7-10 days, and then the subsequent experiments were performed.
Senescence-associated B-galactosidase (SA-β-Gal) staining was performed following a previously reported procedure (Debacq-Chainiaux, et. al., 2009). Briefly, cells in culture dishes were washed with PBS and fixed at room temperature. Cells were fixed in 2% formaldehyde and 0.2% glutaraldehyde for 3 minutes. SA-β-Gal was used for staining with freshly prepared staining solution overnight at 37° C. Images were taken on the next day and the percentage of positive cells per unit area was calculated.

Test [7] relates to PSC27. Put plainly: BrdU and γH2AX immunofluorescence staining of PSC27 cells after bleomycin. It counts as cell-based, human. Particulars: PSC27 treated with bleomycin. The procedure: as §2
For immunofluorescent staining, target cells were pre-seeded on a coverslip for at least 24 h after culture in dishes. After a brief wash, the cells were fixed with 4% paraformaldehyde in PBS for 8 min and blocked with 5% normal goat serum (NGS, Thermo Fisher) for 30 min. Mouse monoclonal antibody-anti-phospho-Histone H2A.X (Ser139) (clone JBW301, Millipore) and mouse monoclonal antibody-anti-BrdU (Cat #347580, BD Biosciences), and secondary antibody Alexa Fluor®488 (or 594)-conjugated F (ab′) 2 were sequentially added to the slides coated with the fixed cells. Nuclei were counterstained with 2 μg/ml of 4′, 6-diamidino-2-phenylindole (DAPI). The most representative image was selected from the three observation fields for data analysis and result display. FV1000 laser scanning confocal microscope (Olympus) was used to acquire confocal fluorescent images of cells.

Entries after “also recorded” stand apart in the source; their conditions may differ.

Regarding `CC(=O)O[C@@]12CO[C@@H]1C[C@H](O)[C@@]1(C)C(=O)[C@H](O)C3=C(C)[C@@H](OC(=O)[C@H](O)[C@@H](NC(=O)OC(C)(C)C)c4ccccc4)C[C@@](O)([C@@H](OC(=O)c4ccccc4)[C@H]21)C3(C)C` [DOC, docetaxel], in test [1], the “effect on tumor volume of chemotherapeutic drug combined with SAE” value (“effect on tumor volume” below) is reported as “no further tumor shrinkage” and the “tumor volume when chemotherapeutic drug used alone” value is given as “reduce the tumor volume”.

With `COc1cccc2c1C(=O)c1c(O)c3c(c(O)c1C2=O)C[C@@](O)(C(=O)CO)C[C@@H]3O[C@H]1C[C@H](N)[C@H](O)[C@H](C)O1` [DOX, doxorubicin], the “effect on tumor volume” value in test [1] is “roughly repeat the significant effect”.

As for `O=C1c2c(O)ccc(O)c2C(=O)c2c(NCCNCCO)ccc(NCCNCCO)c21` [MIT, mitoxantrone], the “reduction in tumor size compared to placebo-treated group” value in test [1] (single agent, end of 8 weeks) is recorded as 44.1%. For the same molecule, the “expression of SASP factors in lesions (mainly stromal cells)” value in test [2] is listed as “significantly increased; also recorded: significantly elevated expression”. For the same molecule, in test [3], the “senescent cells in the tumor tissue after MIT administration” value is listed as “induced the appearance of a large number of senescent cells”. Further, the “degree of DNA damage and apoptosis” value in test [4] was “significant increase”.

For the molecule `CC(C)[C@H](NC(=O)c1ccc2ccccc2n1)C(=O)N[C@@H](CC(=O)O)C(=O)COc1c(F)cccc1F` [QVD, reference compound], in test [5], the “effect of pan-caspase inhibitor on killing of senescent cells by SAE” value is reported as “could prevent the killing of senescent cells by SAE”.

`O=C(/C=C/c1ccc(O/C(=C\c2ccc(O)c(O)c2)C(=O)O)c(O)c1)OC(Cc1ccc(O)c(O)c1)C(=O)O` (stereo not shown) [SAI, salvianolic acid I]: the “effect on tumors when combined with MIT” value in test [1] is reported as “no significant effects”.

For the molecule `CC[C@]1(O)C[C@H]2CN(CCc3c([nH]c4ccccc34)[C@@](C(=O)OC)(c3cc4c(cc3OC)N(C=O)[C@H]3[C@@](O)(C(=O)OC)[C@H](OC(C)=O)[C@]5(CC)C=CCN6CC[C@]43[C@@H]65)C2)C1` [VIN, vincristine], in test [1], the “effect on tumor volume” value is recorded as “no further tumor shrinkage” and the “tumor volume when chemotherapeutic drug used alone” value was “reduce the tumor volume”.

With bleomycin, the “effect on tumor volume” value in test [1] is listed as “roughly repeat the significant effect”. For the same molecule, in test [6], the “positive rate of senescence-associated β-galactosidase (SA-β-Gal) staining” value is “significant increase”. Also, the BrdU incorporation rate entry in test [7] (vs control cells) is reported as “greatly reduced”. For the same molecule, the “DNA damage repair foci (DDR foci)” value in test [7] (γH2AX staining) was “significantly increased”.

As to salvianolic acid J [SAJ], the “effect on tumors when combined with MIT” value in test [1] is recorded as “no significant effects”.
